Laboratory results reported in the Deep4Chem optical property database.
One block for each molecule: values may come before it.

Test: solvent given as SMILES

emission maximum (in CC#N): 780 nm
emission maximum (in CCO): 763 nm
emission maximum (in CO): 768 nm
emission maximum (in ClC(Cl)Cl): 775 nm
Compound: C[N+]1=C(/C=C/C2=C3Oc4c(cc5c6c4CCCN6CCC5)C(c4ccccc4C(=O)O)=C3CCC2)C(C)(C)c2c1ccc1ccccc21

emission maximum (in ClCCl): 528 nm
Compound: CC(C)(C)c1ccc2c(c1)c1cc(C(C)(C)C)ccc1n2-c1ccc(C#Cc2ccc(C=O)cc2)cc1

emission maximum (in ClC(Cl)Cl): 415 nm
Compound: CCCCn1c2ccc(-c3ccc(OC)cc3)cc2c2ccc3c4cc(-c5ccc(OC)cc5)ccc4n(CCCC)c3c21

emission maximum (in ClCCl): 501 nm
Compound: C[Si]1(C)O[Si](C)(C)c2cc3nc4ccccc4c(-c4ccccc4)c3cc2[Si](C)(C)O1

emission maximum (in ClCCl): 411 nm
Compound: CCCCn1c2ccccc2c2ccc(C#Cc3ccc4ccc5cccc6ccc3c4c56)cc21

emission maximum (in ClCCl): 554 nm
Compound: CC1=C(c2ccccc2)Oc2cc3nc4ccccc4nc3c3cccc1c23

emission maximum (in c1ccccc1): 461 nm
Compound: Cc1nc2c(ccc3ccc(O)cc32)oc1=O

emission maximum (in ClC(Cl)Cl): 392 nm
Compound: CC(C)(C)NC(=O)c1cc2ccc3cccc4ccc(c1C(=O)NC(C)(C)C)c2c34

emission maximum (in ClCCl): 532 nm
Compound: CCCCCCCCCCCCN1C(=O)c2c(c3ccc4cc(-c5ccc(OC)cc5)c(OC)cc4c3c3c2ccc2cc(-c4ccc(OC)cc4)c(OC)cc23)C1=O

emission maximum (in C1CCOC1): 666 nm
Compound: CC(C)(C)NC1=CC2=c3cc(NC(C)(C)C)c4nc(C(F)(F)C(F)(F)C(F)(F)F)nc5c(NC(C)(C)C)cc(c3c54)C3=CC(NC(C)(C)C)=C4N=C(C(F)(F)C(F)(F)C(F)(F)F)N=C1C4C32 (centres undefined)

emission maximum (in C1COCCO1): 408.59 nm
emission maximum (in CC#N): 422.39 nm
emission maximum (in CCO): 464.31 nm
emission maximum (in CS(C)=O): 426.09 nm
emission maximum (in O): 468.86 nm
emission maximum (in c1ccccc1): 411.45 nm
Compound: CCOC(=O)c1ccc(NC(=O)COc2cc3c4c([nH]c3c(C)c2C)C(=O)CCC4)cc1

emission maximum (in ClC(Cl)Cl): 371 nm
Compound: CCCCc1cc(-c2cccc(COC)c2)oc1-c1cccc(-c2oc(-c3cccc(COC)c3)cc2CCCC)c1

emission maximum (in CCO): 458 nm
Compound: Cc1c(COC(=O)c2ccccc2Br)n2c(OCC(=O)c3ccccc3Br)c(C)c(=O)n2c1=O

emission maximum (in CO): 648 nm
emission maximum (in CS(C)=O): 655 nm
emission maximum (in O): 658 nm
Compound: CCCN1/C(=C/C=C(/C=C/C2=[N+](CCC)c3ccccc3C2(C)C)c2ccncc2)C(C)(C)c2ccccc21

emission maximum (in CCO): 418 nm
Compound: Cc1nc2c(cc3c4c(cccc42)C(=O)OC3=O)o1

emission maximum (in C1CCOC1): 381 nm
Compound: CCCCOc1cc2ccccc2c2c1oc1cc3ccccc3cc12

emission maximum (in ClCCl): 645 nm
Compound: C1=C2C3=C(C4=[N+]2[B-]2(Oc5ccccc54)Oc4ccccc4-c4c5c(c1n42)C1CCC5CC1)C1CCC3CC1 (centres undefined)

emission maximum (in CC#N): 449 nm
emission maximum (in CO): 449 nm
emission maximum (in O): 457 nm
Compound: CN1CCN(CCCN2c3ccccc3Sc3ccc(Cl)cc32)CC1

emission maximum (in C1CCOC1): 431 nm
Compound: O=P1(c2ccccc2)C(c2ccc(C3=Cc4ccccc4P3(=O)c3ccccc3)cc2)=Cc2ccccc21 (centres undefined)

emission maximum (in ClCCl): 465 nm
Compound: CC(C)(C)c1ccc2c(c1)c1cc(C(C)(C)C)ccc1n2-c1ccc(N(c2ccc(-c3ccc(-c4ccc(N(c5ccc(-n6c7ccc(C(C)(C)C)cc7c7cc(C(C)(C)C)ccc76)cc5)c5ccc(-n6c7ccc(C(C)(C)C)cc7c7cc(C(C)(C)C)ccc76)cc5)cc4)s3)cc2)c2ccc(-n3c4ccc(C(C)(C)C)cc4c4cc(C(C)(C)C)ccc43)cc2)cc1

Second part, the molecule before the results:

Compound: O=C1c2ccccc2-c2ccc(N3CCOCC3)c3cccc1c23
emission maximum (in C1CCOC1): 600 nm
emission maximum (in CCCCCC): 529 nm
emission maximum (in CCO): 640 nm
emission maximum (in CCOC(C)=O): 600 nm
emission maximum (in CN(C)C=O): 622 nm
emission maximum (in CO): 661 nm
emission maximum (in Cc1ccccc1): 568 nm
emission maximum (in ClC(Cl)(Cl)Cl): 552 nm
emission maximum (in ClC(Cl)Cl): 625 nm
emission maximum (in ClCCl): 625 nm
emission maximum (in c1ccccc1): 562 nm

Compound: CC1(C)c2ccccc2N(c2ccc(-c3nc(-c4ccccn4)n(-c4ccc(N5c6ccccc6C(C)(C)c6ccccc65)cc4)n3)cc2)c2ccccc21
emission maximum (in ClCCl): 445 nm

Compound: N#Cc1ccc(/C=C2\N=C(c3ccccc3)OC2=O)cc1
emission maximum (in C1COCCO1): 426 nm

Compound: N#Cc1cc(-n2c3ccccc3c3ccccc32)c(C#N)cc1-n1c2ccccc2c2ccccc21
emission maximum (in c1cc(-c2cccc(-n3c4ccccc4c4ccccc43)c2)cc(-n2c3ccccc3c3ccccc32)c1): 370 nm
emission maximum (in c1ccc2c(c1)c1ccccc1n2P1(n2c3ccccc3c3ccccc32)=NP(n2c3ccccc3c3ccccc32)(n2c3ccccc3c3ccccc32)=NP(n2c3ccccc3c3ccccc32)(n2c3ccccc3c3ccccc32)=N1): 370 nm

Compound: c1ccc(-c2nn(-c3ccccc3)c3nc4ccc(N(c5ccccc5)c5ccccc5)cc4cc23)cc1
emission maximum (in C1CCCCC1): 486.62 nm
emission maximum (in C1CCOC1): 524.66 nm
emission maximum (in CC#N): 570.78 nm
emission maximum (in CC(C)=O): 551.27 nm
emission maximum (in CCCCCl): 516 nm
emission maximum (in CCCCOCCCC): 498.75 nm
emission maximum (in CN(C)C=O): 567.21 nm

Compound: c1ccc(-c2nc(-c3ccc(-n4c5ccc(-n6c7ccccc7c7ccccc76)cc5c5ccc6c(c7ccccc7n6-c6ccccc6)c54)cc3)c3sc4ccccc4c3n2)cc1
emission maximum (in Cc1ccccc1): 460.56 nm

Compound: COC(=O)COc1ccc(/C=C/C2=[N+]3C(=C(c4ccccc4)c4c(C)cc(C)n4[B-]3(F)F)C(C)=C2)cc1
emission maximum (in CO): 574 nm

Compound: Cc1cc(C)c2c(c1)c1cc(C)cc(C)c1n2-c1ccc2c(c1)Oc1ccccc1B2c1c(C(C)C)cc(C(C)C)cc1C(C)C
emission maximum (in Cc1ccccc1): 443 nm

Compound: F[B-]1(F)OC(c2ccccc2)=Cc2cc3[n+](c[n+]21)[B-](F)(F)OC(c1ccccc1)=C3
emission maximum (in ClCCl): 490 nm

Compound: c1ccc(-c2cc(-c3ccc4ccc5cccc6ccc3c4c56)ccn2)nc1
emission maximum (in C1CCOC1): 394 nm
emission maximum (in CC#N): 410 nm
emission maximum (in CCC#N): 408 nm
emission maximum (in CCCC#N): 408 nm
emission maximum (in CCCCCC): 385 nm
emission maximum (in CCCO): 429 nm
emission maximum (in CCO): 431 nm
emission maximum (in CO): 438 nm
emission maximum (in Cc1ccccc1): 393 nm

Compound: Cc1ccc(N(c2ccc(C)cc2)c2ccc(-c3cc4c(cc(-c5ccc(N(c6ccc(C)cc6)c6ccc(C)cc6)cc5)c5nsnc54)c4nsnc34)cc2)cc1
emission maximum (in Cc1ccccc1): 659 nm
emission maximum (in ClCCl): 683 nm

Compound: c1cc2c([nH]c3c4[nH]c5sccc5c4c4nsnc4c23)s1
emission maximum (in C1CCOC1): 511 nm
emission maximum (in CCOC(C)=O): 510 nm
emission maximum (in CN(C)C=O): 547 nm
emission maximum (in Cc1ccccc1): 496 nm
emission maximum (in ClCCl): 533 nm

Compound: CCCCOc1ccc(-c2oc3cc4n(c3c2-c2ccc(OCCCC)cc2)[B-](F)(F)[N+]2=Cc3cc5oc(-c6ccc(OCCCC)cc6)c(-c6ccc(OCCCC)cc6)c5n3[B-](F)(F)[N+]2=C4)cc1
emission maximum (in C1CCOC1): 638 nm
emission maximum (in CN(C)C=O): 644 nm
emission maximum (in CS(C)=O): 647 nm
emission maximum (in Cc1ccccc1): 641 nm
emission maximum (in ClC(Cl)Cl): 646 nm
emission maximum (in ClCCl): 646 nm

Compound: O=c1c2cc(F)c(N3CCCCC3)cc2oc2cc(N3CCCCC3)c(F)cc12
emission maximum (in CCO): 457 nm

Compound: Cc1cc(C)c(B(c2ccc(C#Cc3cc4ccc5cc(C#Cc6ccc(B(c7c(C)cc(C)cc7C)c7c(C)cc(C)cc7C)cc6)cc6ccc(c3)c4c56)cc2)c2c(C)cc(C)cc2C)c(C)c1
emission maximum (in Cc1ccccc1): 426 nm

Compound: COCCOCCOCCOc1ccc(/C=C/C2=[N+]3C(=C(c4cc(OC)cc(OC)c4)c4c(C)c(I)c(/C=C/c5ccc(OCCOCCOCCOC)cc5)n4[B-]3(F)F)C(C)=C2I)cc1
emission maximum (in C1CCOC1): 684 nm
emission maximum (in CS(C)=O): 695 nm
emission maximum (in ClCCl): 687 nm

Compound: COc1ccc(-c2ccc(-c3ccccc3)cc2)cc1
emission maximum (in C1CCCCC1): 353 nm

Compound: CC(C)[Si](C#Cc1c2cc3ccccc3cc2c(C#C[Si](C(C)C)(C(C)C)C(C)C)c2nc3ccccc3nc12)(C(C)C)C(C)C
emission maximum (in CCCCCC): 699 nm
emission maximum (in ClCCl): 738 nm

Compound: CCN(CC)c1ccc2cc(C#N)/c(=N\C(=O)c3ccc(C)cc3)oc2c1
emission maximum (in CCO): 530 nm
emission maximum (in ClCCl): 502 nm

Compound: c1ccc2nc(-n3c4ccccc4c4ccccc43)c(-n3c4ccccc4c4ccccc43)nc2c1
emission maximum (in C1CCOC1): 516.79 nm
emission maximum (in CCCCCC): 467.18 nm
emission maximum (in Cc1ccccc1): 503 nm

Compound: C[Si](C)(C)C#Cc1cccc2ccccc12
emission maximum (in C1CCCCC1): 336 nm

Compound: CC(C)(C)NC(=O)c1ccc(F)c2ccc3c4ccccc4c4ccccc4c3c12
emission maximum (in ClCCl): 405 nm

Compound: COC(=O)/C(C#N)=c1\s/c(=c2/s/c(=C(/C#N)C(=O)OC)c3cc(-c4ccc(F)cc4)sc23)c2sc(-c3ccc(F)cc3)cc12
emission maximum (in Cc1ccccc1): 640 nm

Compound: Cc1cc(=O)oc2cc3c4ccc(C(C)(C)C)cc4c4cc(C(C)(C)C)ccc4c3cc12
emission maximum (in ClC(Cl)Cl): 423 nm

Compound: c1ccc(-c2nc(-c3ccccc3)nc(-c3ccc(N4c5ccccc5C5(c6ccccc64)c4ccccc4C4(c6ccccc6Sc6ccccc64)c4ccccc45)cc3)n2)cc1
emission maximum (in Cc1ccccc1): 468.93 nm

Compound: Cc1nc2ccc(/C=C/c3ccc(N(C)C)cc3)cc2nc1-c1ccccc1
emission maximum (in C1COCCO1): 526 nm
emission maximum (in CC#N): 641 nm
emission maximum (in ClCCl): 590 nm

Compound: CCOC(=O)c1c(C(=O)OC)c(-c2cc3cc(OC)ccc3oc2=O)nn1-c1ccccc1
emission maximum (in ClCCl): 451 nm

Compound: N#C/C(=C\c1ccc([N+](=O)[O-])cc1)c1nc(-c2ccccc2)cs1
emission maximum (in CC#N): 552 nm

Compound: c1cc(-c2ccc3c(c2)CCCO3)ccc1-c1ccc2c(c1)CCCO2
emission maximum (in C1CCCCC1): 351 nm

Compound: CCCN1C(=O)c2c3c(c4c(c2C1=O)CCc1cc(-c2ccc(N(C)C)cc2)c(OC)cc1-4)-c1cc(OC)c(-c2ccc(N(C)C)cc2)cc1CC3
emission maximum (in C1CCCCC1): 511 nm
emission maximum (in C1CCOC1): 602 nm
emission maximum (in CCOC(C)=O): 598 nm
emission maximum (in Cc1ccccc1): 548 nm
emission maximum (in ClCCl): 613 nm

Compound: Cc1ccc(C2=Cc3ccc4ccccc4[n+]3[B-](F)(F)O2)cc1
emission maximum (in ClC(Cl)Cl): 443 nm

Compound: CCCCN(CCCC)c1ccc(C#Cc2cc(C#Cc3ccc([N+](=O)[O-])cc3)c(C#Cc3ccc([N+](=O)[O-])cc3)cc2C#Cc2ccc(N(CCCC)CCCC)cc2)cc1
emission maximum (in ClCCl): 563 nm

Compound: C(=C\c1cccc(/C=C/c2c3ccccc3cc3ccccc23)c1)/c1ccncc1
emission maximum (in C1CCOC1): 475 nm

Compound: N[C@@H](Cn1nnc2cc(-c3ccc(-c4ccsc4)cc3)ccc21)C(=O)O
emission maximum (in CO): 384 nm

Compound: C(=C\c1ccc(-c2nnc(-c3ccccc3)o2)cc1)/c1ccc(-c2nnc(-c3ccccc3)o2)cc1
emission maximum (in CN(C)C=O): 415 nm
